Source: ChEMBL document CHEMBL2401692, “Synthesis, structure-activity relationships, and in vivo efficacy of the novel potent and selective anaplastic lymphoma kinase (ALK) inhibitor 5-chloro-N2-(2-isopropoxy-5-methyl-4-(piperidin-4-yl)phenyl)-N4-(2-(isopropylsulfonyl)phenyl)pyrimidine-2,4-diamine (LDK378) currently in phase 1 and phase …” (J Med Chem, 2013)

Legend:
[1] = biological target: Tyrosine-protein kinase SYK (Homo sapiens, UniProt P43405); experiment: Inhibition of SYK (unknown origin) after 60 mins
[2] = biological target: Rho-associated protein kinase 2 (Homo sapiens, UniProt O75116); experiment: Inhibition of ROCK2 (unknown origin) after 60 mins
Rho-associated protein kinase 2, sequence (O75116 whole entry): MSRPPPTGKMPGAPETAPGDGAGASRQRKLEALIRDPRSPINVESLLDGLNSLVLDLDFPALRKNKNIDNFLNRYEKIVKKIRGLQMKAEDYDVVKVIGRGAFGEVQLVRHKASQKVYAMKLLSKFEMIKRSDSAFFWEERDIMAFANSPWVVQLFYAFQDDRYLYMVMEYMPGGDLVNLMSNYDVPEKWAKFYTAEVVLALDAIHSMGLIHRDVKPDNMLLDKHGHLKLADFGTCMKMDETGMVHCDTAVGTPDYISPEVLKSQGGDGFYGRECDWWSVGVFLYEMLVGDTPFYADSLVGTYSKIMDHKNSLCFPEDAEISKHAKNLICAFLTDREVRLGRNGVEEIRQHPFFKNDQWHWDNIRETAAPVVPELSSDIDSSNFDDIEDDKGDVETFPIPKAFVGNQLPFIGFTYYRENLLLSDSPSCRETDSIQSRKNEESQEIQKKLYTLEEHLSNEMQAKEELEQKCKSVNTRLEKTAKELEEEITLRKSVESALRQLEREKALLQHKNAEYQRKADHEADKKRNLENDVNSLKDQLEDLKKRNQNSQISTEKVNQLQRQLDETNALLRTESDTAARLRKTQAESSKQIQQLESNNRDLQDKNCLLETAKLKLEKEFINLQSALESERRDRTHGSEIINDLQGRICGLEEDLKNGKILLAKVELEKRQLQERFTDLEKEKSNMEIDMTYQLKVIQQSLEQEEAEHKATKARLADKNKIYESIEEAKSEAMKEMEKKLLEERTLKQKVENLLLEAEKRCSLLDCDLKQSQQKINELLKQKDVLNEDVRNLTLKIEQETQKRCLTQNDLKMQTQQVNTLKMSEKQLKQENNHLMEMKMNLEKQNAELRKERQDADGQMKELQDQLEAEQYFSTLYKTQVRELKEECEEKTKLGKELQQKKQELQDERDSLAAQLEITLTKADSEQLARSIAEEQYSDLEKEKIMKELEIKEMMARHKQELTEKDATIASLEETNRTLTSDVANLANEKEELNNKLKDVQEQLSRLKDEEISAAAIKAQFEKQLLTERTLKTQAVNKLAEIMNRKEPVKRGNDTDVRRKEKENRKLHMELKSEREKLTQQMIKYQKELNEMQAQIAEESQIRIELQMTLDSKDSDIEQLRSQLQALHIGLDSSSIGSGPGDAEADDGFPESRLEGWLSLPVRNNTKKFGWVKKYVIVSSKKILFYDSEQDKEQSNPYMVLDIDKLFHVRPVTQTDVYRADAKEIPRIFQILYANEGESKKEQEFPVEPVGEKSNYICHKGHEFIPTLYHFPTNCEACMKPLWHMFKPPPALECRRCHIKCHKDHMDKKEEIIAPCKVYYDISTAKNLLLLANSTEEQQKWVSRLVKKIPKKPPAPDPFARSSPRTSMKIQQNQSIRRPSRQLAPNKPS

Cytochrome P450 3A4 = Cytochrome P450 3A4 (Homo sapiens, UniProt P08684); experiment: Inhibition of CYP3A4 in human liver microsomes using midazolam as substrate by LC-MS/MS analysis; type: ADME, Microsome
Cytochrome P450 3A4, sequence (P08684 whole entry): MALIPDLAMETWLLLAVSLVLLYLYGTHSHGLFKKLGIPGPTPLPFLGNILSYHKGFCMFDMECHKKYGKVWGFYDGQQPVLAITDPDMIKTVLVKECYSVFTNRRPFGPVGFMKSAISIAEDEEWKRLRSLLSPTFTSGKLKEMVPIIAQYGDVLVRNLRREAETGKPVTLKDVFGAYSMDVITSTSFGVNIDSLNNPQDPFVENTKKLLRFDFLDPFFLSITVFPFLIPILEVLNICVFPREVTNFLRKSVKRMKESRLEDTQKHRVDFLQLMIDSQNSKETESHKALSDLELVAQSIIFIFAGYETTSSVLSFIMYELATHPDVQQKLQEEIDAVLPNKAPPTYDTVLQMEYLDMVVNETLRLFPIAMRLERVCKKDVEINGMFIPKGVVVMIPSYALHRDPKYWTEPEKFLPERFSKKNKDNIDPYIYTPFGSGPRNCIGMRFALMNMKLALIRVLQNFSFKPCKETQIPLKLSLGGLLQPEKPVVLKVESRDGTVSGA

Rattus norvegicus [3] = experiment: Inhibition of ALK-mediated STAT3 phosphorylation in human KARPAS299 cells xenografted in Rowett nude rat at 50 mg/kg, po after 72 hrs Western blotting analysis relative to control; type: functional; conditions: KARPAS-299, 72 h
NCI-H2228 [4] = experiment: Antitumor activity against human NCI-H2228 cells xenografted in Rowett nude rat assessed as complete tumor regression at 25 mg/kg, po for 14 days measured 7 to 72 hrs post dosing relative to control; type: functional
Canis familiaris = organism: Canis familiaris; experiment: Cardiotoxicity in dog assessed as QTc prolongation; type: toxicity, organism-based, Canis lupus familiaris; conditions: in vivo
[5] = AUC in cynomolgus monkey at 5 mg/kg, iv; type: ADME, organism-based, Macaca fascicularis; set-up: dose 5 mg/kg, route intravenous; conditions: plasma
[6] = AUC in BALB/c mouse at 20 mg/kg, po; type: ADME, organism-based; set-up: dose 20 mg/kg, route oral; conditions: plasma
[7] = Volume of distribution at steady state in cynomolgus monkey at 5 mg/kg, iv; type: ADME, organism-based, Macaca fascicularis; set-up: dose 5 mg/kg, route intravenous; conditions: in vivo, read-out: Vdss
[8] = Cmax in BALB/c mouse at 5 mg/kg, iv; type: ADME, organism-based; set-up: dose 5 mg/kg, route intravenous; conditions: in vivo
Rattus norvegicus [9] = experiment: Toxicity in po dosed Rowett nude rat xenografted with human KARPAS299 cells assessed as body weight loss at 6.25 to 50 mg/kg, po; type: organism-based, KARPAS-299; set-up: dose 6.25-50 mg/kg, route oral; conditions: in vivo
[10] = Half life in cynomolgus monkey at 5 mg/kg, iv; type: ADME, organism-based, Macaca fascicularis; set-up: dose 5 mg/kg, route intravenous; conditions: in vivo
[11] = Tmax in BALB/c mouse at 5 mg/kg, iv; type: ADME, organism-based; set-up: dose 5 mg/kg, route intravenous; conditions: in vivo
[12] = Oral bioavailability in cynomolgus monkey at 60 mg/kg; type: ADME, organism-based, Macaca fascicularis; conditions: in vivo
[13] = biological target: Tyrosine-protein kinase ABL1 (Homo sapiens, UniProt P00519); experiment: Inhibition of ABL (unknown origin) after 60 mins
[14] = AUC in BALB/c mouse at 5 mg/kg, iv; type: ADME, organism-based; set-up: dose 5 mg/kg, route intravenous; conditions: plasma
[15] = AUC in Sprague-Dawley rat at 10 mg/kg, po; type: ADME, organism-based; set-up: dose 10 mg/kg, route oral; conditions: plasma
in vivo [16] = conditions: Sprague-Dawley, rat, po, 10 mg/kg
[17] = Tmax in Sprague-Dawley rat at 10 mg/kg, po; type: ADME, organism-based; set-up: dose 10 mg/kg, route oral; conditions: in vivo
[18] = biological target: Cyclin-dependent kinase 4 (Homo sapiens, UniProt P11802); experiment: Inhibition of CDK4 (unknown origin) after 60 mins
KARPAS-299 = conditions: Homo sapiens
Description: Antitumor activity against human KARPAS299 cells xenografted in po dosed Rowett nude rat assessed as tumor growth inhibition administered for 14 days measured 7 to 72 hrs post dosing

[19] = biological target: Tyrosine-protein kinase ZAP-70 (Homo sapiens, UniProt P43403); experiment: Inhibition of ZAP70 (unknown origin) after 60 mins
[20] = Tmax in Sprague-Dawley rat at 3 mg/kg, iv; type: ADME, organism-based; set-up: dose 3 mg/kg, route intravenous; conditions: in vivo
in vivo [21] = conditions: Sprague-Dawley, rat, iv, 3 mg/kg
[22] = Toxicity in po dosed Rowett nude rat xenografted with human NCI-H2228 cells; type: organism-based; conditions: in vivo
[23] = biological target: Serine/threonine-protein kinase PAK 2 (Homo sapiens, UniProt Q13177); experiment: Inhibition of PAK2 (unknown origin) after 60 mins
Serine/threonine-protein kinase PAK 2, sequence (Q13177 whole entry): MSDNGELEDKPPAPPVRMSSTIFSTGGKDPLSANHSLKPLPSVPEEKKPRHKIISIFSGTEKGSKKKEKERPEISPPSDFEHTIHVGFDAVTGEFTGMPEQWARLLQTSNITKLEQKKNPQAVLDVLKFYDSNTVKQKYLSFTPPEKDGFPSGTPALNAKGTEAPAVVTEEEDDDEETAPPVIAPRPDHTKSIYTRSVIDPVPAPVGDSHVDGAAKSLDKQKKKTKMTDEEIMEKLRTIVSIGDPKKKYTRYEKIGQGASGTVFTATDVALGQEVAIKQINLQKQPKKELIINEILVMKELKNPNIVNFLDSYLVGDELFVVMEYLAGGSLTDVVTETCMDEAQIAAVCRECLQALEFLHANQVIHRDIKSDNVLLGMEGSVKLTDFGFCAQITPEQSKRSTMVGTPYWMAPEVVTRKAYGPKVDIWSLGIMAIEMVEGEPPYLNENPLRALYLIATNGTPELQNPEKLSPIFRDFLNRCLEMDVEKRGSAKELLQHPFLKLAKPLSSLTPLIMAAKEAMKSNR

[24] = biological target: Mast/stem cell growth factor receptor Kit (Homo sapiens, UniProt P10721); experiment: Inhibition of cKIT (unknown origin) after 60 mins
Mast/stem cell growth factor receptor Kit, sequence (P10721 whole entry): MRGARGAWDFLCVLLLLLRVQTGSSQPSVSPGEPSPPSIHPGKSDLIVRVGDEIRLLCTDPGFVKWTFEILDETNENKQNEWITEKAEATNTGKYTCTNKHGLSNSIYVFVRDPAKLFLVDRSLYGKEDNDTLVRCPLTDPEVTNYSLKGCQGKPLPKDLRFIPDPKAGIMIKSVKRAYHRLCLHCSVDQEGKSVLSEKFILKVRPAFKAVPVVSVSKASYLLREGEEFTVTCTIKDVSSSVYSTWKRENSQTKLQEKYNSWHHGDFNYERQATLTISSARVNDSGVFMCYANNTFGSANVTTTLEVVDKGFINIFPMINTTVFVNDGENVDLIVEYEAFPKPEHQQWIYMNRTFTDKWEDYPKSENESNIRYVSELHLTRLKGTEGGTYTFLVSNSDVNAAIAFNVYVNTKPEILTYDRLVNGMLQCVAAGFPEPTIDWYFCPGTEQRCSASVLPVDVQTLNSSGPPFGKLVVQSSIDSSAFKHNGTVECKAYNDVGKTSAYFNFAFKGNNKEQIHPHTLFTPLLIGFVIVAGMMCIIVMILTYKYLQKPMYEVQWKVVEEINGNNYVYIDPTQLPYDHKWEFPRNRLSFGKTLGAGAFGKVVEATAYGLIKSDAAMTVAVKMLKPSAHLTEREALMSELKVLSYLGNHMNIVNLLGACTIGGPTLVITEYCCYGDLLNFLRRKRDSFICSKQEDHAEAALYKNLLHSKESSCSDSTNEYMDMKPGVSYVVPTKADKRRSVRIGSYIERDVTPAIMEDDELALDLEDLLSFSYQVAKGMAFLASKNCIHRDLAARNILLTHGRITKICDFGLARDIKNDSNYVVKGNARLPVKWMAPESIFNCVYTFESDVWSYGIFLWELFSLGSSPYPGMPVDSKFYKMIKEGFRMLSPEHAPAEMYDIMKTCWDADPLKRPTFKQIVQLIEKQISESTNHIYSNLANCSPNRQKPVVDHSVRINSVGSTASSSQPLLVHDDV

[25] = Tmax in Beagle dog at 5 mg/kg, iv; type: ADME, organism-based, Canis lupus familiaris; set-up: dose 5 mg/kg, route intravenous; conditions: in vivo
[26] = Oral bioavailability in Sprague-Dawley rat at 10 mg/kg; type: ADME, organism-based; conditions: in vivo
[27] = Inhibition of Aurora kinase (unknown origin) after 60 mins; set-up: species or system Homo sapiens
[28] = Intrinsic clearance in human liver microsomes; type: ADME, Microsome; conditions: read-out: CLH
[29] = Intrinsic clearance in mouse liver microsomes; type: ADME, Microsome; conditions: read-out: CLH
[30] = biological target: Cyclin-dependent kinase 2 (Homo sapiens, UniProt P24941); experiment: Inhibition of CDK2 (unknown origin) after 60 mins
[31] = Half life in BALB/c mouse at 5 mg/kg, iv; type: ADME, organism-based; set-up: dose 5 mg/kg, route intravenous; conditions: in vivo
[32] = AUC in Sprague-Dawley rat at 3 mg/kg, iv; type: ADME, organism-based; set-up: dose 3 mg/kg, route intravenous; conditions: plasma
[33] = biological target: Tyrosine-protein kinase Lyn (Homo sapiens, UniProt P07948); experiment: Inhibition of LYN (unknown origin) after 60 mins
Tyrosine-protein kinase Lyn, sequence (P07948 whole entry): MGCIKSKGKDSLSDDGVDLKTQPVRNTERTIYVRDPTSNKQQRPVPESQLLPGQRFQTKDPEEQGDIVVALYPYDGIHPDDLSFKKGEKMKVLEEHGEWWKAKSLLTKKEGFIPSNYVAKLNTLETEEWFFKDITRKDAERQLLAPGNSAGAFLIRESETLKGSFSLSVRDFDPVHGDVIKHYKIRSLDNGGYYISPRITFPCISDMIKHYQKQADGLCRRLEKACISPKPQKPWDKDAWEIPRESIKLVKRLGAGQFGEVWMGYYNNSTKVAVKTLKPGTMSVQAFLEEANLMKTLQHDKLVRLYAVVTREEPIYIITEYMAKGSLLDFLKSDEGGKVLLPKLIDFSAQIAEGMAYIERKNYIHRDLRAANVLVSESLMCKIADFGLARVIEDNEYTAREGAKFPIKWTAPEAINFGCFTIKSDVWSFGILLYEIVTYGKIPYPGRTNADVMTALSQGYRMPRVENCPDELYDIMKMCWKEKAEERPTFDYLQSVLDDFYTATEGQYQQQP

[34] = Volume of distribution at steady state in Beagle dog at 5 mg/kg, iv; type: ADME, organism-based, Canis lupus familiaris; set-up: dose 5 mg/kg, route intravenous; conditions: in vivo, read-out: Vdss
[35] = Half life in Beagle dog at 5 mg/kg, iv; type: ADME, organism-based, Canis lupus familiaris; set-up: dose 5 mg/kg, route intravenous; conditions: in vivo
NCI-H2228 [36] = conditions: Homo sapiens
Description: Antitumor activity against human NCI-H2228 cells xenografted in po dosed Rowett nude rat assessed as tumor growth inhibition administered for 14 days measured 7 to 72 hrs post dosing

[37] = biological target: Vascular endothelial growth factor receptor 2 (Homo sapiens, UniProt P35968); experiment: Inhibition of TEL-fused KDR (unknown origin) by cell-based assay
[38] = biological target: Platelet-derived growth factor receptor alpha (Homo sapiens, UniProt P16234); experiment: Inhibition of PDGFRalpha (unknown origin) after 60 mins
[39] = biological target: Fibroblast growth factor receptor 3 (Homo sapiens, UniProt P22607); experiment: Inhibition of TEL-fused FGFR3 (unknown origin) by cell-based assay
[40] = biological target: Testis-specific serine/threonine-protein kinase 1 (Homo sapiens, UniProt Q9BXA7); experiment: Inhibition of STK22D (unknown origin) after 60 mins
[41] = biological target: BDNF/NT-3 growth factors receptor (Homo sapiens, UniProt Q16620); experiment: Inhibition of TEL-fused TRKB (unknown origin) by cell-based assay
[42] = biological target: Receptor-type tyrosine-protein kinase FLT3 (Homo sapiens, UniProt P36888); experiment: Inhibition of FLT3 (unknown origin) after 60 mins
Receptor-type tyrosine-protein kinase FLT3, sequence (P36888 whole entry): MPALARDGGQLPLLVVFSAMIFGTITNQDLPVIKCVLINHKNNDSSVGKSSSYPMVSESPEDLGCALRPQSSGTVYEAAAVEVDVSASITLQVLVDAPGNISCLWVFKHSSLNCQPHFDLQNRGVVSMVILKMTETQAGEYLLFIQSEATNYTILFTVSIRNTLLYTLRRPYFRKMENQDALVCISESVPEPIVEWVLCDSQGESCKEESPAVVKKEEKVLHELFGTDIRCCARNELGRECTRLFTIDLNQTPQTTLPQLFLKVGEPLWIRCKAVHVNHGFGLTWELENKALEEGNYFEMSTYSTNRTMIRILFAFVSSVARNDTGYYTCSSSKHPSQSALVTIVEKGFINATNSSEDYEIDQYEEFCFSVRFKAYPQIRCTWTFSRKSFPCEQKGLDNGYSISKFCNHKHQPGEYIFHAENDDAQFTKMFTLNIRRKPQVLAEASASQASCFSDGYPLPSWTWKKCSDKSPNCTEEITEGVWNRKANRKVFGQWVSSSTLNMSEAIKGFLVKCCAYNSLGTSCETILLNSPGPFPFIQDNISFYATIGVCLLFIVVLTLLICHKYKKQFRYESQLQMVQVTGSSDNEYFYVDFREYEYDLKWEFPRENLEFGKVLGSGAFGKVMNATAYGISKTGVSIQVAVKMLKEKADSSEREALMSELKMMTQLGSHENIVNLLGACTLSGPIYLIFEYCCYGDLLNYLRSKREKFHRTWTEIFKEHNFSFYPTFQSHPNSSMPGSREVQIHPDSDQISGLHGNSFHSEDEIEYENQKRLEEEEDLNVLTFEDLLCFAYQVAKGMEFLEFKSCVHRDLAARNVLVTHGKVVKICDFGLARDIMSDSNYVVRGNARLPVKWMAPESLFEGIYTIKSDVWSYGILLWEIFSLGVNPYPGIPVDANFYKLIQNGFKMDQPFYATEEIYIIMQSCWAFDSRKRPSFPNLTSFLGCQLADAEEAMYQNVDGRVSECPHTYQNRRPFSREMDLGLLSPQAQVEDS

For `Cc1cc(Nc2ncc(Cl)c(Nc3ccccc3S(=O)(=O)C(C)C)n2)c(OC(C)C)cc1C1CCNCC1` [CERITINIB], which IC50 [1] is on record?
Its IC50 is 3050 nM.

And the IC50 [2]?
Its IC50 is 1270 nM.

And the INH (Cytochrome P450 3A4)?
Its INH is 1.5 µM.

What about the inhibition in vivo at 50 mg/kg (Rattus norvegicus [3]) of the same compound?
The inhibition in vivo at 50 mg/kg was 80%.

And the T/C (NCI-H2228 [4])?
Its T/C is -100%.

What about the Activity (Canis familiaris) of the same compound?
The Activity was “Non-toxic”.

What about the AUC [5] of the same compound?
The AUC was 11.3 µM·h.

And the AUC [6]?
Its AUC is 12.3 µM·h.

What about the Vd [7] of the same compound?
Its Vd is 15 L/kg.

What about the Cmax [8] of the same compound?
Its Cmax is 1760 nM.

And the Activity (Rattus norvegicus [9])?
Its Activity is “Non-toxic”.

What about the half-life [10] of the same compound?
Its half-life is 26 h.

And the Tmax [11]?
The Tmax was 1.8 min.

And the bioavailability [12]?
Its bioavailability is 56%.

What about the IC50 [13] of the same compound?
Its IC50 is 1250 nM.

What about the AUC [14] of the same compound?
The AUC was 5.63 µM·h.

And the AUC [15]?
Its AUC is 6.09 µM·h.

What about the Cmax (in vivo [16]) of the same compound?
The Cmax was 259 nM.

What about the Tmax [17] of the same compound?
The Tmax was 7 h.

What about the IC50 [18] of the same compound?
The IC50 was 4720 nM.

And the TGI (KARPAS-299)?
Its TGI is “Dose-dependent effect”.

And the IC50 [19]?
The IC50 was 9700 nM.

And the Tmax [20]?
Its Tmax is 1.8 min.

And the Cmax (in vivo [21])?
The Cmax was 770 nM.

What about the MTD [22] of the same compound?
The MTD was 5 mg/kg.

What about the IC50 [23] of the same compound?
The IC50 was over 10000 nM.

What about the IC50 [24] of the same compound?
The IC50 was 1280 nM.

What about the Tmax [25] of the same compound?
Its Tmax is 1.8 min.

What about the bioavailability [26] of the same compound?
Its bioavailability is 66%.

What about the IC50 [27] of the same compound?
The IC50 was 660 nM.

And the microsomal CLint [28]?
Its microsomal CLint is 19 µL/min/mg.

And the microsomal CLint [29]?
Its microsomal CLint is 15 µL/min/mg.

And the IC50 [30]?
The IC50 was 3970 nM.

What about the half-life [31] of the same compound?
The half-life was 6.2 h.

And the AUC [32]?
The AUC was 2.78 µM·h.

What about the IC50 [33] of the same compound?
The IC50 was 840 nM.

And the Vd [34]?
Its Vd is 13.5 L/kg.

And the half-life [35]?
Its half-life is 21 h.

And the TGI (NCI-H2228 [36])?
Its TGI is “Dose-dependent effect”.

And the IC50 [37]?
The IC50 was 4210 nM.

What about the IC50 [38] of the same compound?
The IC50 was 1140 nM.

What about the IC50 [39] of the same compound?
Its IC50 is over 10000 nM.

What about the IC50 [40] of the same compound?
The IC50 was 23 nM.

What about the IC50 [41] of the same compound?
Its IC50 is 1830 nM.

And the IC50 [42]?
Its IC50 is 60 nM.
